The values that follow come from US9908868B2, “Isoindolinone compounds as GPR119 modulators for the treatment of diabetes, obesity, dyslipidemia and related disorders” (SANOFI, priority 2014, dated 2018).

The target in the assay is T1, human GPR119 (Homo sapiens, UniProt Q8TDV5).
T1 construct: expressed in transfected cells
T1 sequence (Q8TDV5 1-335): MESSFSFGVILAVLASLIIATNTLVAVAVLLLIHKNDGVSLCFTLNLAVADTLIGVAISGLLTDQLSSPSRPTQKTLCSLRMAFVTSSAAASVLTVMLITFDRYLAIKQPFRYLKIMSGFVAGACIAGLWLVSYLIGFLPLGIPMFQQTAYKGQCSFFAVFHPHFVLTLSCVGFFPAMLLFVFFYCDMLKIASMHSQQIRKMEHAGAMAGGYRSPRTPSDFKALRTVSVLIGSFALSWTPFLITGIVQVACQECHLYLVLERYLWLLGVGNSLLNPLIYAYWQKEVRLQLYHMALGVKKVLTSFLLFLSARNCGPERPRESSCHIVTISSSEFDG
The assay is described as follows: Functional cellular assay measuring GPR119-mediated cAMP release (HTRF) in HEK-293 cells stably expressing recombinant human GPR119. Format: cell-based. The settings on record: cAMP response, cell line expressing human GPR119, 30 minutes at room temperature. The method, then: Functional Cellular Assays Measuring GPR119-Mediated cAMP Release
Compounds of the invention, which are agonists of GPR119, were characterized by functional assays measuring the cAMP response of HEK-293 cell lines stably expressing recombinant GPR119 from man, mouse or rat, or by using a hamster cell line HIT-T15 expressing GPR119 endogenously. The cAMP content was determined using a kit based on homogenous time-resolved fluorescence (HTRF) from Cisbio Corp. (cat. no. 62AM4PEC). For preparation, cells were split into T175 culture flasks and grown to near confluency in medium (DMEM/10% FCS for HEK-293 cells, and F-12K medium/10% horse serum/2.5% FCS for HIT-T15 cells, respectively). Medium was then removed and cells washed with PBS lacking calcium and magnesium ions, followed by proteinase treatment with accutase (Sigma-Aldrich, cat. no. A6964). Detached cells were washed and resuspended in assay buffer (1×HBSS; 20 mM HEPES, 0.1% BSA, 2 mM IBMX) and cellular density determined. They were then diluted to 400000 cells/mL and 25 μL-aliquots dispensed to the wells of 96-well plates. For measurement, 25 μL of test compound in assay buffer was added and incubated for 30 minutes at room temperature. After addition of HTRF reagents diluted in lysis buffer, the plates were incubated for 1 hour, followed by measuring the fluorescence ratio at 665 vs. 620 nm. Potency of the agonists was quantified by determining the concentrations that caused 50% of the maximal response/activation (EC50). See Table 7 for exemplary data obtained using the cell line expressing human GPR119.
(In general: In TR-FRET formats the signal depends on donor and acceptor labels being close together.)

The term EC50 denotes the midpoint of the concentration-response curve. Regarding `C[S+]([O-])CN1Cc2c(F)cc(N3CC[C@@H](Oc4ccc(OCC5CC5)nc4)C3=O)cc2C1=O` (stereo partly drawn) [Example 1-19, 6-[(3R)-3-[[6-(cyclopropylmethoxy)-3-pyridyl]oxy]-2-oxo-pyrrolidin-1-yl]-4-fluoro-2-(methylsulfinylmethyl)isoindolin-1-one], the EC50 was determined as 71 nM.
The figure for `COC(=O)CNC(=O)CN1Cc2ccc(N3CC[C@@H](Oc4ccc(OCC5CC5)nc4)C3=O)cc2C1=O` [Example 4-31, methyl 2-[[2-[6-[(3R)-3-[[6-(cyclopropylmethoxy)-3-pyridyl]oxy]-2-oxo-pyrrolidin-1-yl]-1-oxo-isoindolin-2-yl]acetyl]amino]acetate] is 153 nM.
For `CCOC(=O)CN1Cc2ccc(N3CC[C@@H](Oc4ccc(OCC(F)(F)F)nc4)C3=O)cc2C1=O` [Example 1-64, ethyl 2-[1-oxo-6-[(3R)-2-oxo-3-[[6-(2,2,2-trifluoroethoxy)-3-pyridyl]oxy]pyrrolidin-1-yl]isoindolin-2-yl]acetate] the value was 27 nM.
The figure for `CN1C(=O)c2cc(N3CC[C@@H](Oc4ccc(OCC5CC5)nc4)C3=O)ccc2C1CC(=O)O` (stereo partly drawn) [Example 1-03, 2-[5-[(3R)-3-[[6-(cyclopropylmethoxy)-3-pyridyl]oxy]-2-oxo-pyrrolidin-1-yl]-2-methyl-3-oxo-isoindolin-1-yl]acetic acid] is 10900 nM; for `O=C(CN1Cc2c(F)cc(N3CC[C@@H](Oc4ccc(OCC5CC5)nc4)C3=O)cc2C1=O)N1CCC(O)CC1` [Example 4-22, 6-[(3R)-3-[[6-(cyclopropylmethoxy)-3-pyridyl]oxy]-2-oxo-pyrrolidin-1-yl]-4-fluoro-2-[2-(4-hydroxy-1-piperidyl)-2-oxo-ethyl]isoindolin-1-one] it is 88 nM.
For `CN(C)C(=O)C1NC(=O)c2cc(N3CC[C@@H](Oc4ccc(OCC5CC5)nc4)C3=O)ccc2N1C` (single isomer, unassigned) [Example 1-41], the EC50 is 2030 nM.
The figure for `CN(C)C(=O)CN1Cc2ccc(N3CC[C@@H](Oc4ccc(C(=O)C5CC5)nc4)C3=O)cc2C1=O` [Example 2-58, 2-[6-[(3R)-3-[[6-(cyclopropanecarbonyl)-3-pyridyl]oxy]-2-oxo-pyrrolidin-1-yl]-1-oxo-isoindolin-2-yl]-N,N-dimethyl-acetamide] is 251 nM; for `O=C(CN1Cc2c(F)cc(N3CC[C@@H](Oc4ccc(OCCC5CC5)nc4)C3=O)cc2C1=O)NCCO` [Example 4-29, 2-[6-[(3R)-3-[[6-(2-cyclopropylethoxy)-3-pyridyl]oxy]-2-oxo-pyrrolidin-1-yl]-4-fluoro-1-oxo-isoindolin-2-yl]-N-(2-hydroxyethyl)acetamide] it is 157 nM; for `CCNC(=O)CN1Cc2ccc(N3CC[C@@H](Oc4ccc(OCC(F)(F)F)nc4)C3=O)cc2C1=O` [Example 4-39, N-ethyl-2-[1-oxo-6-[(3R)-2-oxo-3-[[6-(2,2,2-trifluoroethoxy)-3-pyridyl]oxy]pyrrolidin-1-yl]isoindolin-2-yl]acetamide] it is 205 nM.
With `CCC(=O)c1ccc(O[C@@H]2CCN(c3ccc4c(c3)C(=O)N(CC(=O)N(C)C)C4)C2=O)cc1` [Example 2-11, N,N-dimethyl-2-[1-oxo-6-[(3R)-2-oxo-3-(4-propanoylphenoxy)pyrrolidin-1-yl]isoindolin-2-yl]acetamide], the concentration for a half-maximal effect (EC50) amounted to 267 nM.
For `CCOc1ccc(O[C@@H]2CCN(c3cc(F)c4c(c3)C(=O)N(CC(=O)N(C)C)C4)C2=O)cn1` [Example 4-21, 2-[6-[(3R)-3-[(6-ethoxy-3-pyridyl)oxy]-2-oxo-pyrrolidin-1-yl]-4-fluoro-1-oxo-isoindolin-2-yl]-N,N-dimethyl-acetamide] the value was 222 nM; for `NC(=O)CN1Cc2ccc(N3CC[C@@H](Oc4ccc(-c5nccs5)cc4)C3=O)cc2C1=O` [Example 2-51, 2-[1-oxo-6-[(3R)-2-oxo-3-(4-thiazol-2-ylphenoxy)pyrrolidin-1-yl]isoindolin-2-yl]acetamide], 126 nM.
The figure for `O=C(O)CN1Cc2c(F)cc(N3CC[C@@H](Oc4ccc(OCCC5CC5)nc4)C3=O)cc2C1=O` [Example 3-03, 2-[6-[(3R)-3-[[6-(2-cyclopropylethoxy)-3-pyridyl]oxy]-2-oxo-pyrrolidin-1-yl]-4-fluoro-1-oxo-isoindolin-2-yl]acetic acid] is 87 nM; for `CC1(CN2Cc3c(F)cc(N4CC[C@@H](Oc5ccc(OCCC6CC6)nc5)C4=O)cc3C2=O)COC1` [Example 5-03, 6-[(3R)-3-[[6-(2-cyclopropylethoxy)-3-pyridyl]oxy]-2-oxo-pyrrolidin-1-yl]-4-fluoro-2-[(3-methyloxetan-3-yl)methyl]isoindolin-1-one] it is 2530 nM.
For `CC(=O)N1CCN(c2ccc(O[C@@H]3CCN(c4ccc5c(c4)C(=O)N(CC(=O)N(C)C)C5)C3=O)cc2)CC1` [Example 2-26, 2-[6-[(3R)-3-[4-(4-acetylpiperazin-1-yl)phenoxy]-2-oxo-pyrrolidin-1-yl]-1-oxo-isoindolin-2-yl]-N,N-dimethyl-acetamide] the value was 1060 nM.
Regarding `CC(C)Sc1ccc(O[C@@H]2CCN(c3ccc4c(c3)C(=O)N(CC(=O)N(C)C)C4)C2=O)cn1` [Example 1-09, 2-[6-[(3R)-3-[(6-isopropylsulfanyl-3-pyridyl)oxy]-2-oxo-pyrrolidin-1-yl]-1-oxo-isoindolin-2-yl]-N,N-dimethyl-acetamide], the half-maximal effective concentration (EC50) is 163 nM.
The figure for `COC(=O)CN1Cc2ccc(N3CC[C@@H](Oc4ccc(OC5CC5)nc4)C3=O)cc2C1=O` [Example 1-22, methyl 2-[6-[(3R)-3-[[6-(cyclopropoxy)-3-pyridyl]oxy]-2-oxo-pyrrolidin-1-yl]-1-oxo-isoindolin-2-yl]acetate] is 242 nM.
As for `O=C(CN1Cc2ccc(N3CC[C@@H](Oc4ccc(OCC5CC5)nc4)C3=O)cc2C1=O)NC[C@H](O)CO` [Example 4-34, 2-[6-[(3R)-3-[[6-(cyclopropylmethoxy)-3-pyridyl]oxy]-2-oxo-pyrrolidin-1-yl]-1-oxo-isoindolin-2-yl]-N-[(2S)-2,3-dihydroxypropyl]acetamide], the EC50 amounted to 541 nM.
For `CC(C(=O)O)N1Cc2ccc(N3CC[C@@H](Oc4ccc(OCC5CC5)nc4)C3=O)cc2C1=O` (stereo partly drawn) [Example 1-02, 2-[6-[(3R)-3-[[6-(cyclopropylmethoxy)-3-pyridyl]oxy]-2-oxo-pyrrolidin-1-yl]-1-oxo-isoindolin-2-yl]propanoic acid] the value was 2030 nM.
For `O=C1[C@H](Oc2ccc(OCC3CC3)nc2)CCN1c1ccc2[nH][nH]c(=O)c2c1` [Example 1-24, 5-[(3R)-3-[[6-(cyclopropylmethoxy)-3-pyridyl]oxy]-2-oxo-pyrrolidin-1-yl]-1,2-dihydroindazol-3-one] the value was 14300 nM.
For `CN(CCO)C(=O)CN1Cc2ccc(N3CC[C@@H](Oc4ccc(Oc5ccc(F)cc5)nc4)C3=O)cc2C1=O` [Example 4-12, 2-[6-[(3R)-3-[[6-(4-fluorophenoxy)-3-pyridyl]oxy]-2-oxo-pyrrolidin-1-yl]-1-oxo-isoindolin-2-yl]-N-(2-hydroxyethyl)-N-methyl-acetamide] the value was 297 nM.
With `CS(=O)(=O)CN1Cc2ccc(N3CC[C@@H](Oc4ccc(C(=O)C5CC5)nc4)C3=O)cc2C1=O` [Example 1-59, 6-[(3R)-3-[[6-(cyclopropanecarbonyl)-3-pyridyl]oxy]-2-oxo-pyrrolidin-1-yl]-2-(methylsulfonylmethyl)isoindolin-1-one], the EC50 turned out to be 451 nM.
For `COC(=O)C(C)N1Cc2ccc(N3CC[C@@H](Oc4ccc(OCC5CC5)nc4)C3=O)cc2C1=O` (stereo partly drawn) [Example 1-04, methyl 2-[6-[(3R)-3-[[6-(cyclopropylmethoxy)-3-pyridyl]oxy]-2-oxo-pyrrolidin-1-yl]-1-oxo-isoindolin-2-yl]propanoate] the value was 540 nM; for `CN(C)C(=O)CN1Cc2ccc(N3CC[C@@H](Oc4ccc(OCC(F)(F)F)nc4)C3=O)cc2C1=O` [Example 2-05, N,N-dimethyl-2-[1-oxo-6-[(3R)-2-oxo-3-[[6-(2,2,2-trifluoroethoxy)-3-pyridyl]oxy]pyrrolidin-1-yl]isoindolin-2-yl]acetamide], 62 nM; for `Cc1cnc(-c2ccc(O[C@@H]3CCN(c4ccc5c(c4)C(=O)N(CC(=O)N(C)C)C5)C3=O)cn2)s1` [Example 2-60, N,N-dimethyl-2-[6-[(3R)-3-[[6-(5-methylthiazol-2-yl)-3-pyridyl]oxy]-2-oxo-pyrrolidin-1-yl]-1-oxo-isoindolin-2-yl]acetamide], 97 nM.
For `O=C(CN1Cc2ccc(N3CC[C@@H](Oc4ccc(OCC(F)(F)F)nc4)C3=O)cc2C1=O)NC1CC1` [Example 4-36, N-cyclopropyl-2-[1-oxo-6-[(3R)-2-oxo-3-[[6-(2,2,2-trifluoroethoxy)-3-pyridyl]oxy]pyrrolidin-1-yl]isoindolin-2-yl]acetamide] the value was 562 nM.
